Literature values as cited in US8460861B2, “Method for producing hydrogen-containing fluid able to be used in a living organism” (MIZ Co. Ltd., priority 2009, dated 2013).

Conditions: 20 C degrees under 1 barometric pressure

[HH] [molecular hydrogen]
saturation concentration: 1.6 ppm
